Measurements as given in PubChem BioAssay (NCI).
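Test compounds were applied to cells in 96-well plates for 48 hours at 5 doses. The concentration for 50% growth inhibition is given as GI50. Definition used: TGI = concentration required for complete inhibition of growth.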

Experiments:
Experiment in all cases: inhibition of tumour cell growth, NCI panel, 48 h
ACHN renal = test system: ACHN renal
BT-549 breast = test system: BT-549 breast
HCT-15 colon = test system: HCT-15 colon
MDA-MB-435 = test system: MDA-MB-435
MOLT-4 leukemia = test system: MOLT-4 leukemia
NCI-H460 lung = test system: NCI-H460 lung
RXF 393 renal = test system: RXF 393 renal
SK-MEL-2 melanoma = test system: SK-MEL-2 melanoma
UACC-62 melanoma = test system: UACC-62 melanoma
HL-60(TB) leukemia = test system: HL-60(TB) leukemia

Structure (SMILES)	GI50 (ACHN renal) [µM]	TGI (ACHN renal) [µM]	GI50 (BT-549 breast) [µM]	TGI (BT-549 breast) [µM]	GI50 (HCT-15 colon) [µM]	TGI (HCT-15 colon) [µM]	GI50 (MDA-MB-435) [µM]	TGI (MDA-MB-435) [µM]	GI50 (MOLT-4 leukemia) [µM]	TGI (MOLT-4 leukemia) [µM]	GI50 (NCI-H460 lung) [µM]	TGI (NCI-H460 lung) [µM]	GI50 (RXF 393 renal) [µM]	TGI (RXF 393 renal) [µM]	GI50 (SK-MEL-2 melanoma) [µM]	TGI (SK-MEL-2 melanoma) [µM]	GI50 (UACC-62 melanoma) [µM]	TGI (UACC-62 melanoma) [µM]	TGI (HL-60(TB) leukemia) [µM]	GI50 (HL-60(TB) leukemia) [µM]
Cc1ccc(S(=O)(=O)NC(CCCCN)C(=O)CCl)cc1 (stereo unspecified)	92.7	> 100	27.6	89.6	72.4	> 100	22.2	67.9	86.6	> 100	> 100	> 100	54.2	> 100	67.5	> 100	58.3	> 100		
COCC(O)CN1C(N)=NC(O)C1O (stereo unspecified)		> 100										> 100		> 100		> 100			> 100	
CCN(CC)CCCC(C)NC(=S)N/N=C(\C)c1ccccn1 (stereo unspecified)	2.99	> 100			2.49	> 100	5.17	> 100	4.49	> 100	2.33	15	2.14	6.81	5.54	> 100	3.02	> 100	6.02	1.39
CCN(CC)CC(C(=O)Nc1c(C)cccc1C)/C(C)=N/NC(N)=S (stereo unspecified)		> 100								> 100		> 100		> 100		> 100		> 100	> 100	
Cc1cc(N2CCOCC2)nc(N(CCNc2ccnc3cc(Cl)ccc23)Cc2cccs2)n1	1.91	3.79			1.78	4.05	1.76	3.32	2.58	5.93			1.74	3.47	1.99	4.08	1.9	3.65	3.83	1.95
Cc1cn2cc(-c3ccncc3)nc2s1		> 100				> 100				> 100		> 100				> 100		> 100	> 41.6	
O=C(Nc1cccc(Cl)c1)c1cc2cc(N=Nc3ccc(Br)cc3)ccc2oc1=O		> 100				> 100				77.7		> 100		> 100		52.7		39.1		
Cn1c(N)cc(=O)nc1N		> 100		> 100		> 100		> 100		> 100		> 100				> 100		> 100	> 100	
CC/C(=C(\c1ccccc1)c1ccc(OCC[N+](C)(C)C)cc1)c1ccccc1		34.6				34.1				36.4		37.4		36.9		30.2		26.8	6.13	
Cc1ccc(CCNC(=S)SCC(NC(=O)CCC(N)C(=O)O)C(=O)NCC(=O)O)cc1 (stereo unspecified)		4.17				3.72				3.93		8.09		2.32		1.45		3.08	2.6	
O=C(CN1C(=O)c2ccccc2C1=O)NC1(C(=O)O)CCCC1		> 100		> 100		> 100		> 100		> 100				> 100		> 100		> 100	> 100	
Nc1cc2[nH]c(=O)c3cc(Cl)ccc3c2cc1Cl		22.4		> 100		> 100		52.1		> 100		18.8				> 100		> 100	> 100	
CCCC1C2=C(C(=O)OC2=O)C2C(CC)CC3=C(C(=O)OC3=O)C12 (stereo unspecified)		> 100		> 100		> 100		> 100		> 100		> 100				> 100		> 100	> 100	
CC1SC(c2cccc(Oc3ccccc3)c2)N(CCc2cccs2)C1=O (stereo unspecified)	1.14	4.97	1.04	2.4	1.08	3.77	1.19	3.14	0.77	4.97	1.09	2.49			1.03	2.31	0.676	2.22	6.56	1.17
Oc1ccc(-c2nc(-c3ccc4oc5ccc(-c6[nH]c(-c7ccc(O)cc7)nc6-c6ccccc6)cc5c4c3)c(-c3ccccc3)[nH]2)cc1	5.2	20.3	18.8	58.2	3.68	29.1	2.85	> 100	2.34	7.09	3.01	9.85	2.12	5.45			14.7	46.8	8.09	2.79
CCCCCCn1c(=N)n(CC(O)COc2cccc(C)c2)c2ccccc21 (stereo unspecified)	2.02	4.25	1.8	3.51	2.12	5.34	1.83	3.56	2.39	6.16	1.96	3.88			1.91	4.26	1.92	4.97	3.79	1.88
CC(=O)OC12CCCCC1C1(CCCC1)NC2=O (stereo unspecified)		> 100				> 100				> 100		> 100		> 100				> 100	> 100	
CCOC(=O)c1ccccc1NC(c1ccccc1)c1ccc2cccnc2c1O (stereo unspecified)	3.07	> 100	4.25	16.7	2.11	23.5	5.41	61.6	2.54	> 100	2.82	78.4	3.11	23.2	3.74	45.1			6.63	1.97
Nc1n[nH]c(=O)c2c1c(Br)cn2C1OC(CO)C(O)C1O (stereo unspecified)		> 100				48.4				9.3		> 100		10.3		41.4		37.5	1.03	
O=C1c2ccccc2CC1C1(O)C(=O)Nc2c(Cl)cc(Cl)cc21 (stereo unspecified)		> 100				> 100				> 100		> 100		85.8		> 100			96.4	
COC(=O)C1CCC2(CC1)NC(=O)NC2=O (stereo unspecified)		> 100								> 100		> 100		> 100		> 100		> 100	> 100	

Structure (SMILES)	GI50 (ACHN renal) [µM]	TGI (ACHN renal) [µM]	GI50 (BT-549 breast) [µM]	TGI (BT-549 breast) [µM]	GI50 (HCT-15 colon) [µM]	TGI (HCT-15 colon) [µM]	GI50 (MDA-MB-435) [µM]	TGI (MDA-MB-435) [µM]	GI50 (MOLT-4 leukemia) [µM]	TGI (MOLT-4 leukemia) [µM]	GI50 (NCI-H460 lung) [µM]	TGI (NCI-H460 lung) [µM]	GI50 (RXF 393 renal) [µM]	TGI (RXF 393 renal) [µM]	GI50 (SK-MEL-2 melanoma) [µM]	TGI (SK-MEL-2 melanoma) [µM]	GI50 (UACC-62 melanoma) [µM]	TGI (UACC-62 melanoma) [µM]	TGI (HL-60(TB) leukemia) [µM]	GI50 (HL-60(TB) leukemia) [µM]
COc1ccc(/C=C(\NC(=O)c2ccccc2)c2nc3ccccc3[nH]2)cc1		> 100				> 100				83.1		> 100				48.4		> 100		
CC(C)(O)C1CC(=O)C(C)(C2C(O)CC3(C)C4CC=C5C(CCC(O)C5(C)C)C4(C)C(=O)CC23C)O1 (stereo unspecified)		> 100		> 100		> 100		> 100		> 100		> 100		> 100		> 100		> 100		
CCOc1ccccc1Nc1nc(C)c(C(=O)CC(=O)C(=O)Nc2ccccc2)s1		> 100				> 100				78.3		> 100		> 100		> 100		> 100	58.1	
O=C1[C@@H]2C3C=CC([C@H]4C(=O)N(CO)C(=O)[C@@H]34)[C@@H]2C(=O)N1CO		> 83.5				> 56.7				> 100		> 55.1		> 77.8		> 100		> 100	49.3	
COc1cc(/C=C/C(=O)C(C)(C)C)cc(OC)c1OC		> 100				> 100				> 100		67.4		79.1		> 100		> 100	53	
O=c1c2ccccc2nc(-c2ccccc2Cl)n1NC1OC(CO)C(O)C(O)C1O (stereo unspecified)		> 100				> 100				> 100		> 100				> 100		> 100	> 100	
O=C1c2cccc3cc4ccccc4c(c23)C(=O)N1CCCNCCNCCCN1C(=O)c2cccc3cc4ccccc4c(c23)C1=O		1.6		2.4		1.36		1.73		1.36		0.161		1.58					8.28	
S=C(N/N=C/c1ccccc1)NC1CC(c2ccccc2)Oc2ccccc21 (stereo unspecified)												> 100				> 100		> 100		
CC(=O)/C=C\C(=O)NNS(=O)(=O)c1ccc(C)cc1		> 100				> 100				> 100		> 100		> 100		> 100		> 100	> 100	
COC(=O)[C@@H](C)C[C@H](Cc1ccccc1)NC(=O)c1cccc([C@@H](C[C@H](C(C)C)N(C)C(=O)[C@@H](NC(=O)[C@H]2CCCCN2C)C(C)C)OC(C)=O)n1	< 0.00167	> 16.7	0.0025	0.101	0.00507	> 16.7	< 0.00167	0.0881	0.00815	> 16.7	< 0.00167	> 16.7	< 0.00167	> 16.7			< 0.00167	> 16.7	0.00181	< 0.00167
Cc1nn(C(=O)CC(=O)Nc2ccccc2Cl)c(C)c1N=Nc1ccccc1Cl		> 100				> 100				> 100		> 100		> 100		> 100		> 100	> 100	
O=S(O)CCCSSCCCCSSCCCS(=O)O		> 100				> 100				> 100		> 100		> 100		> 100		> 100		
CC(=O)NC(Cc1ccccc1)C(=S)N1CCCC1 (stereo unspecified)		> 100				> 100				> 100		> 100		> 100		> 100		> 100	> 100	
CN(C)CCCn1c2c(c3ccc([N+](=O)[O-])cc3c1=O)C(=O)c1ccccc1-2	4.54	17.8			10.6	35.8	> 100	> 100	0.696	> 100	2.69	19.4			> 100	> 100	7.13	24.6		
Cn1c([N+](=O)[O-])cnc1/C=C1\Oc2ccc(Cl)cc2C1=O	0.258	0.921	1.2	4.99	0.251	1.04	0.354	1.95	0.32	3.32	0.352	2.95			0.901	3.04	1.24	3.27	4.67	0.511
COc1ccc2nccc(C3OC(=O)N4CCC(=O)CC34)c2c1 (stereo unspecified)		> 100				> 100				> 100		> 100		> 100		> 100		> 100	> 100	
CC(=O)NC1C(=O)CC(c2ccccc2)N(C)C1c1ccccc1 (stereo unspecified)		> 100				> 100				> 100		> 100		> 100		> 100		> 100	> 100	
NCCN.O=N[O-].O=N[O-].O=N[O-].O=N[O-].[Co+3].[K+]	> 100	> 100			> 100	> 100			> 100	> 100	> 100	> 100			> 100	> 100	> 100	> 100	> 100	> 100
O=c1[nH]c2cccccc-2c1-c1nc2ccccc2[nH]1		51.6				> 100								45.6		77.1		44.9	> 100	
O=C1OC2C(O)COC2(OCc2c[nH]c3ccccc23)C1O (stereo unspecified) (tested in a mixture with another compound)						> 100				> 100		> 100		> 100		> 100		> 100	> 100	
COc1cc(OC)c(-c2oc3ccccc3c(=O)c2O)c(OC)c1		> 100		> 100		> 100		2.5		> 100		> 100		37.7				> 100	> 24.1	
